Data published in paper PMC10584170, “Machine learning-based phenotypic imaging to characterise the targetable biology of Plasmodium falciparum male gametocytes for the development of transmission-blocking antimalarials” (PLOS Pathogens, 2023).

Columns and labels:
[1] = tested on: P. falciparum female gametocytes; experiment: P. falciparum Dual Gamete Formation Assay (PfDGFA), female readout (Pfs25-positive female gametes); format: cell-based, Plasmodium falciparum NF54; settings: for Average inhibition female (%): average of replicates; for % inhibition female (individual replicates) R1: replicate R1; for % inhibition female (individual replicates) R3: replicate R3; for % inhibition female (individual replicates) R4: replicate R4
How it was run: (§1)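 NF54 mature gametocytes (d14), cpd 24 h 37°C hypoxic gas; trigger: xanthurenic acid ookinete medium + Cy3 anti-Pfs25, 4°C 4 min → 28°C 4 min. Male: exflagellation centres, brightfield x6. Female: Pfs25+ gametes, fluorescence, +24 h 28°C dark.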

[2] = tested on: P. falciparum male gametocytes; experiment: P. falciparum Dual Gamete Formation Assay (PfDGFA), male readout (exflagellation); format: cell-based, Plasmodium falciparum NF54; settings: for Average inhibition male (%): average of replicates; for % inhibition male (individual replicates) R1: replicate R1; for % inhibition male (individual replicates) R3: replicate R3; for % inhibition male (individual replicates) R4: replicate R4; for Activity: hit = >50% inhibition in male or female readout in at least 3 replicates, 0 = no class assigned
How it was run: as §1

[3] = 2µM, 24h preincubation with gametocytes prior to induction of gametogenesis
[4] = 2µM, 24h preincubation, hits selected on >50% inhibition in the female readout across replicates
[5] = 2µM, 24h preincubation, hits selected on >50% inhibition in the male readout across replicates
[6] = PfDGFA at 2µM, 24h preincubation
[7] = 2µM, 24h preincubation, number of replicates with >50% inhibition in the female readout
[8] = 2µM, 24h preincubation, number of replicates with >50% inhibition in the male readout
[9] = PfDGFA at 2µM, 24h preincubation with gametocytes
[10] = number of replicates with >50% inhibition in the female readout, 2µM
[11] = number of replicates with >50% inhibition in the male readout, 2µM
[12] = PfDGFA at 2µM, 24h preincubation with gametocytes prior to induction of gametogenesis

Structure (SMILES) | Average inhibition female (%) [1, 3] [%] | % inhibition female (individual replicates) R1 [1, 3] [%] | % inhibition female (individual replicates) R3 [1, 3] [%] | % inhibition female (individual replicates) R4 [1, 3] [%] | HitlevelF [1, 4] | Average inhibition male (%) [2, 3] [%] | % inhibition male (individual replicates) R1 [2, 3] [%] | % inhibition male (individual replicates) R3 [2, 3] [%] | % inhibition male (individual replicates) R4 [2, 3] [%] | HitlevelM [2, 5] | Activity [2, 6] | also measured
O=C(NCCCCN1CCC(c2ccc3c(c2OCCN2CCCC2)CCCC3)CC1)c1ccc(-c2ccc(C(F)(F)F)cc2)cc1 [TCMDC-138768] | 9.4 | 18.9 | -7.9 | 3.3 | 0 | 31.7 | 23.4 | -6.7 | 63.6 | 1 | 0 | 
Cc1[nH]c(C)c(-c2ccc(Oc3ccc(OC(F)(F)F)cc3)cc2)c(=O)c1Br [TCMDC-138826] | 14.3 | 12.8 | 15.5 | 15.2 | 0 | -11.2 | -5.2 |  | -18.5 | 0 | 0 | 
O=C(NCC1CCN(CCN2CCC(c3cn(CCO)c4ccccc34)CC2)CC1)c1ccc(-c2ccc(C(F)(F)F)cc2)cc1 [TCMDC-138856] | 23.9 | 24.2 | 27.5 | 18.4 |  | 42.1 | 32.1 |  | 39.5 |  |  | HitlevelF [1, 7]: 0; HitlevelM [2, 8]: 1
CC1(C)CC(NCCCCCCCOc2ccc(OCc3ccccc3)cc2)CC(C)(C)N1.Cl [TCMDC-138958] |  |  |  |  |  |  |  |  |  |  |  | Average inhibition female (%) [1, 9]: 23.9%; % inhibition female (individual replicates) R1 [1, 9]: 22.5%; % inhibition female (individual replicates) R3 [1, 9]: -1.0%; % inhibition female (individual replicates) R4 [1, 9]: 34.0%; HitlevelF [1, 10]: 0; Average inhibition male (%) [2, 9]: 66.7%; % inhibition male (individual replicates) R1 [2, 9]: 71.0%; % inhibition male (individual replicates) R3 [2, 9]: 36.7%; % inhibition male (individual replicates) R4 [2, 9]: 78.9%; HitlevelM [2, 11]: 3
CCN1CCC2(c3cccc(OC)c3)Cc3nc4ccccc4c(-c4ccccc4)c3CC2C1 (stereo not shown) [TCMDC-138968] | 33.9 | 34.1 | 23.7 | 21.6 |  | 50.6 | 28.7 | 22.4 | 66.9 |  |  | HitlevelF [1, 7]: 1; HitlevelM [2, 8]: 2
Oc1ccc2[nH]cc(C3CCN(CCCNCc4ccc(-c5ccccc5)cc4)CC3)c2c1 [TCMDC-139047] | 20.7 | 11.5 | 19.3 | 14.8 |  | 41.4 | 26.8 |  | 40.8 |  |  | HitlevelF [1, 7]: 0; HitlevelM [2, 8]: 1
NC(CC1CC(=O)N1CC(=O)O)C(=O)O (stereo not shown) [TCMDC-139050] | 6.8 | 12.5 | 4.8 | 14.4 | 0 | -4.7 | 15.3 | -15.7 | -29.8 | 0 | 0 | 
COC(=O)c1ccc(-c2ccc(-c3cccnc3)cc2C)cc1 [TCMDC-139074] | 13.5 | 26.9 | 10.2 | 0.5 | 0 | 18.8 | 21.7 | 27.9 | 3.9 | 0 | 0 | 
CN(C)CCCc1cc2c(cc1Cl)CCN2C(=O)Nc1ccc(-c2ccncc2)c2ccccc12 [TCMDC-139215] | 5.1 | 27.9 | -29.4 | 20.5 | 0 | 2.0 | 5.2 | 1.0 | 8.2 | 0 | 0 | 
CN1CCN(c2cc3c(cc2Cl)CCN3C(=O)Nc2ccc(NC(=O)c3ccc(C(F)(F)F)cc3)cc2)CC1.Cl [TCMDC-139270] |  |  |  |  |  |  |  |  |  |  |  | Average inhibition female (%) [1, 9]: 59.6%; % inhibition female (individual replicates) R1 [1, 9]: 37.1%; % inhibition female (individual replicates) R3 [1, 9]: 50.9%; % inhibition female (individual replicates) R4 [1, 9]: 69.9%; HitlevelF [1, 10]: 3; Average inhibition male (%) [2, 9]: 84.1%; % inhibition male (individual replicates) R1 [2, 9]: 90.7%; % inhibition male (individual replicates) R3 [2, 9]: 63.5%; % inhibition male (individual replicates) R4 [2, 9]: 92.9%; HitlevelM [2, 11]: 4
CCCCCCCN1CC[C@@H](CCCc2ccnc3ccc(OC)cc23)[C@@H](CCN)C1.O=C(O)C(=O)O [TCMDC-139278] | 13.3 | 23.8 | -1.7 | 20.4 | 0 | 60.9 | 62.0 |  | 48.5 | 2 | 0 | 
COc1ccc(COc2cc(NCCCN)nc3ccccc23)cc1 [TCMDC-139286] | 19.5 | 25.0 | 18.0 | 26.8 |  | 30.7 | 52.7 | 36.6 | 44.0 |  |  | HitlevelF [1, 7]: 0; HitlevelM [2, 8]: 1
COc1cc(NCC(O)CNc2cc(OC)c3ccccc3n2)nc2ccccc12 [TCMDC-139360] | 25.6 | 27.5 | 10.8 | 36.1 |  | 53.4 | 68.1 | 33.7 | 64.9 |  |  | HitlevelF [1, 7]: 0; HitlevelM [2, 8]: 2
COc1ccc(C(=O)Nc2cc(Cl)c3c(c2)C2CCCN2CC3)cc1C(F)(F)F.Cl (stereo not shown) [TCMDC-139417] |  |  |  |  |  |  |  |  |  |  |  | % inhibition female (individual replicates) R1 [1, 12]: 2.5%; % inhibition female (individual replicates) R3 [1, 12]: -4.3%; % inhibition female (individual replicates) R4 [1, 12]: 1.3%; Average inhibition female (%) [1, 6]: 1.8%; % inhibition male (individual replicates) R1 [2, 12]: -1.3%; % inhibition male (individual replicates) R4 [2, 12]: 9.8%; Average inhibition male (%) [2, 6]: 13.2%
N=C(N)Nc1nc(-c2cccc(NC(=O)NCCc3c[nH]c4ccc(OCc5ccccc5)cc34)c2)cs1 [TCMDC-139557] | 5.9 | 1.1 | -17.0 | 37.8 | 0 | 6.6 | 1.3 | 4.0 | 10.9 | 0 | 0 | 
CC(Cc1ccc(CNC(=O)c2ccc(CC(C)NCCc3cccc(Cl)c3)cc2)cc1)NCCc1cccc(Cl)c1 (stereo not shown) [TCMDC-139659] | 5.1 | 10.4 | -19.4 | -1.7 | 0 | 33.9 | 26.3 | 2.8 | 42.9 | 1 | 0 | 
O=C(/C=C/c1ccc(Cl)c(Cl)c1)N1CCC2CC(N3CCC(c4c[nH]c5ccccc45)CC3)CCC2C1 (stereo not shown) [TCMDC-139677] | 4.1 | 10.8 | -1.7 | 7.4 | 0 | 6.9 | -0.85 | 2.4 | 12.3 | 0 | 0 | 
